{"source": "patent EP1891955A1", "about": "“Use of 1,2,3-substituted indolizine derivatives, inhibitors of FGFs, for the preparation of a medicament intended for the treatment of degenerative joint diseases” (Sanofi-Aventis, priority 2006, dated 2008)", "test_system": "STR/1N mice", "test": "Knee joint damage in STR/1N mice developing osteoarthritis spontaneously (semi-quantitative histopathological score)", "type": "in vivo", "settings": "male STR/1N mice, 6-week treatment", "procedure": "The effect of an FGF-antaqonist on the degree of knee joint damage in STR/1N mice, which develop osteoarthritis spontaneously\nThe experiment was performed according to the regulations of the German Animal Protection Law. Fifty 9-week old male STR/1N mice (strain bred and maintained at sanofi-aventis, Dept. of Laboratory Animal Safety and Welfare, D-65926 Frankfurt/Main, Germany) were randomized to 2 experimental groups (n=25/group). The animals were housed individually in standard mouse cages (room temperature 20 - 22°C; relative humidity 55-75%; 12 hours light/dark cycle) with free access to the powdered mouse standard food (Sniff R/M-H, Soest, Germany) and tap water. To achieve sustained drug exposure, the sodium 2-amino-5-[(1-methoxy-2-methylindolizin-3-yl)carbonyl]benzoic acid monohydrate was blended with the standard food at concentrations of 300 ppm (0.3 g/kg food) and administered to one experimental group of 25 mice ad libitum. The control group of 25 mice received unsupplemented standard food. Following the 6-week treatment period the animals were sacrificed by CO2 inhalation, their left knee joints were removed and decalcified for 3 days with formic acid (decalcifier, Shandon, Frankfurt/M., Germany), fixed in formalin and embedded in paraffin. Four sequential coronal sections of the complete knee joints (7 µm, 0.1 mm apart), stained with Hematoxyline-Eosine and Saffranin-O were evaluated by a blinded observer for the degree of histopathological joint alterations by using a semi-quantitative score as described in Table 1. Table 1: Semiquantitative Histopathological Score of Osteoarthritic Joint Damage in STR/1N Mice\nThe osteoarthritis joint damage was assessed by a semi-quantitative histopathological score. The STR/1N mice developed moderate osteoarthritis in the medial tibial plateau of the knee joint.", "note": "Marks after values point to notes of the source that are not given here.", "data": [{"molecule": "COc1c(C)c(C(=O)c2ccc(N)c(C(=O)O)c2)n2ccccc12.O.[Na]", "note": "[sodium 2-amino-5-[(1-methoxy-2-methylindolizin-3-yl)carbonyl]benzoic acid monohydrate]", "values": [{"measurement": "Histopathological Score Mean (SEM)", "setting": "300 ppm (0.3 g/kg food) in food ad libitum, left knee joint, maximal total joint score = 128, p = 0.0118 Mann Whitney Test vs control 34.3 (3.8)", "result": "23.5 (3.7)*"}, {"measurement": "tolerability", "setting": "300 ppm in food", "result": "well tolerated"}, {"measurement": "reduction of the degree of histopathological joint damage", "setting": "300 ppm in food, versus non-treated control", "result": 32, "unit": "%"}]}]}
